System: patients with postpartum depression (PPD)
Assay: Clinical trial, inhaled 5-MeO-DMT individualized dosing regimen in postpartum depression (one patient so far)
Method: The single-arm, open-label clinical trial will involve 15 adult female patients with clinically diagnosed postpartum depression (PPD).
The second dose (12 mg) will only be administered if: • a. […] The 6 mg dose was safe and well-tolerated according to the investigator, • c. Any psychoactive effects (PsE) of the prior dose have subsided, and • d. Pre-dose vital parameters and forced expiratory volume in one second (FEV1) are in normal range, or if outside of the normal range, are not clinically significant according to the investigator. • 3. Similarly, a third dose (18 mg) will only be administered if: • a. […] The 12 mg dose was safe and well-tolerated according to the investigator, and • c. Any PsE of the prior dose have subsided, and • d. Pre-dose vital parameters and forced expiratory volume in one second (FEV1) are in normal range, or if outside of the normal range, are not clinically significant according to the investigator.
The patients will be assessed for a peak psychedelic experience (based on a patient-scored visual analogue scale, the PE scale), sedation, and other endpoints after dosing. Follow-up visits are planned for Day 1, and Day 7 after the dosing day.

COc1ccc2[nH]cc(CCN(C)C)c2c1 [5-MeO-DMT]
BPRS Disorientation score (Day 7, baseline 1): 1
BPRS Grandiosity improvement (Day 7, baseline 1): 0
BPRS Grandiosity score (Day 7, baseline 1): 1
BPRS Hallucinatory behaviour improvement (Day 7, baseline 1): 0
BPRS Hallucinatory behaviour score (Day 7, baseline 1): 1
BPRS Hostility improvement (Day 7, baseline 1): 0
BPRS Hostility score (Day 7, baseline 1): 1
BPRS Mannerisms and Posturing improvement (Day 7, baseline 1): 0
BPRS Mannerisms and Posturing score (Day 7, baseline 1): 1
BPRS Motor retardation improvement (Day 7, baseline 1): 0
BPRS Motor retardation score (Day 7, baseline 1): 1
BPRS Suspiciousness improvement (Day 7, baseline 1): 0
BPRS Suspiciousness score (Day 7, baseline 1): 1
BPRS Uncooperativeness improvement (Day 7, baseline 1): 0
BPRS Uncooperativeness score (Day 7, baseline 1): 1
BPRS Unusual Thought Content improvement (Day 7, baseline 1): 0
BPRS Unusual Thought Content score (Day 7, baseline 1): 1
BPRS Excitement improvement (Day 7, baseline 2): 1
BPRS Excitement score (Day 7, baseline 2): 1
MADRS Inability to Feel improvement (Day 7, baseline 3): 3
MADRS Inability to Feel score (Day 7, baseline 3): 0
MADRS Lassitude improvement (Day 7, baseline 3): 3
MADRS Lassitude score (Day 7, baseline 3): 0
MADRS Pessimistic Thoughts improvement (Day 7, baseline 4): 4
MADRS Pessimistic Thoughts score (Day 7, baseline 4): 0
MADRS Reported sadness improvement (Day 7, baseline 4): 4
MADRS Reported sadness score (Day 7, baseline 4): 0
BPRS Emotional withdrawal improvement (Day 7, baseline 5): 4
BPRS Emotional withdrawal score (Day 7, baseline 5): 1
MADRS Apparent sadness improvement (Day 7, baseline 5): 5
MADRS Apparent sadness score (Day 7, baseline 5): 0
MADRS Inner Tension improvement (Day 7, baseline 5): 4
MADRS Inner Tension score (Day 7, baseline 5): 1
MADRS Reduced Sleep improvement (Day 7, baseline 5): 5
MADRS Reduced Sleep score (Day 7, baseline 5): 0
BPRS Depressive Mood improvement (Day 7, baseline 6): 5
BPRS Depressive Mood score (Day 7, baseline 6): 1
BPRS Guilt feelings improvement (Day 7, baseline 6): 5
BPRS Guilt feelings score (Day 7, baseline 6): 1
BPRS Somatic Concern improvement (Day 7, baseline 6): 5
BPRS Somatic Concern score (Day 7, baseline 6): 1
BPRS Tension improvement (Day 7, baseline 6): 5
BPRS Tension score (Day 7, baseline 6): 1
BPRS Anxiety improvement (Day 7, baseline 7): 6
BPRS Anxiety score (Day 7, baseline 7): 1
BIMF functional domain Adjustment Δ (Day 7) (Day 7 vs Day 0): 1
BIMF functional domain Infant Care Δ (Day 7) (Day 7 vs Day 0): 0
BIMF functional domain Management Δ (Day 7) (Day 7 vs Day 0): 5
BIMF functional domain Mother-Child Interaction Δ (Day 7) (Day 7 vs Day 0): 2
BIMF functional domain Psychological Well-being Δ (Day 7) (Day 7 vs Day 0): 9
BIMF functional domain Self Care Δ (Day 7) (Day 7 vs Day 0): 4
BIMF functional domain Social Support Δ (Day 7) (Day 7 vs Day 0): 1
BIMF item 1 (I am a good mother) Δ (Day 7) (Day 7 vs Day 0): 0
BIMF item 2 (I feel rested) Δ (Day 7) (Day 7 vs Day 0): 2
BIMF item 3 (I am comfortable with the way I've chosen to feed my baby) Δ (Day 7) (Day 7 vs Day 0): 0
BIMF item 4 (My baby and I understand each other) Δ (Day 7) (Day 7 vs Day 0): 0
BIMF item 5 (I am able to relax and enjoy time with my baby) Δ (Day 7) (Day 7 vs Day 0): 1
BIMF item 6 (There are people in my life that I can trust to care for my baby when I need a break) Δ (Day 7) (Day 7 vs Day 0): 0
BIMF item 8 (I am getting enough adult interaction) Δ (Day 7) (Day 7 vs Day 0): 0
BIMF item 9 (I am getting enough encouragement from other people) Δ (Day 7) (Day 7 vs Day 0): 1
BIMF item 10 (I trust my own feelings (instincts) when it comes to taking care of my baby) Δ (Day 7) (Day 7 vs Day 0): 1
BIMF item 11 (I take a little time each week to do something for myself) Δ (Day 7) (Day 7 vs Day 0): 1
BIMF item 12 (I am taking good care of my baby's physical needs) Δ (Day 7) (Day 7 vs Day 0): 0
BIMF item 13 (I am taking good care of my physical needs) Δ (Day 7) (Day 7 vs Day 0): 1
BIMF item 14 (I make good decisions about my baby's health and well being) Δ (Day 7) (Day 7 vs Day 0): 0
BIMF item 15 (My baby and I are getting into a routine) Δ (Day 7) (Day 7 vs Day 0): 1
BIMF item 16 (I worry about how other people judge me (as a mother)) Δ (Day 7) (Day 7 vs Day 0): 2
BIMF item 17 (I am able to take care of my baby and my other responsibilities) Δ (Day 7) (Day 7 vs Day 0): 0
BIMF item 18 (Anxiety or worry often interferes with my mothering ability) Δ (Day 7) (Day 7 vs Day 0): 3
BIMF item 19 (As time goes on, I am getting better at taking care of my baby) Δ (Day 7) (Day 7 vs Day 0): 1
BIMF item 20 (I am satisfied with the job I am doing as a new mother) Δ (Day 7) (Day 7 vs Day 0): −1
BPRS Blunted affect improvement (Discharge, baseline 1): 0
BPRS Blunted affect score (Discharge, baseline 1): 1
BPRS Conceptual disorganization improvement (Discharge, baseline 1): 0
BPRS Conceptual disorganization score (Discharge, baseline 1): 1
BPRS Disorientation improvement (Discharge, baseline 1): 0
BPRS Disorientation score (Discharge, baseline 1): 1
BPRS Grandiosity improvement (Discharge, baseline 1): 0
BPRS Grandiosity score (Discharge, baseline 1): 1
BPRS Hallucinatory behaviour improvement (Discharge, baseline 1): 0
BPRS Hallucinatory behaviour score (Discharge, baseline 1): 1
BPRS Hostility improvement (Discharge, baseline 1): 0
BPRS Hostility score (Discharge, baseline 1): 1
BPRS Mannerisms and Posturing improvement (Discharge, baseline 1): 0
BPRS Mannerisms and Posturing score (Discharge, baseline 1): 1
BPRS Motor retardation improvement (Discharge, baseline 1): 0
BPRS Motor retardation score (Discharge, baseline 1): 1
BPRS Suspiciousness improvement (Discharge, baseline 1): 0
BPRS Suspiciousness score (Discharge, baseline 1): 1
BPRS Uncooperativeness improvement (Discharge, baseline 1): 0
BPRS Uncooperativeness score (Discharge, baseline 1): 1
BPRS Unusual Thought Content improvement (Discharge, baseline 1): 0
BPRS Unusual Thought Content score (Discharge, baseline 1): 1
BPRS Excitement improvement (Discharge, baseline 2): 1
BPRS Excitement score (Discharge, baseline 2): 1
BPRS Emotional withdrawal improvement (Discharge, baseline 5): 4
BPRS Emotional withdrawal score (Discharge, baseline 5): 1
BPRS Depressive Mood improvement (Discharge, baseline 6): 5
BPRS Depressive Mood score (Discharge, baseline 6): 1
BPRS Guilt feelings improvement (Discharge, baseline 6): 5
BPRS Guilt feelings score (Discharge, baseline 6): 1
BPRS Somatic Concern improvement (Discharge, baseline 6): 5
BPRS Somatic Concern score (Discharge, baseline 6): 1
BPRS Tension score (Discharge, baseline 6): 1
BPRS Anxiety improvement (Discharge, baseline 7): 6
BPRS Anxiety score (Discharge, baseline 7): 1
ECG, safety laboratory analyses, CADSS (ECG 3 hours, laboratory 7 days, CADSS 3 hours, 1 day and 7 days): unremarkable
changes in vital parameters (shortly after administration): temporary, clinically non-relevant increase in heart rate and blood pressure

From patent US20250235427A1, “5-METHOXY-N,N-[…][…] THE TREATMENT OF SOCIAL/EMOTIONAL […] DETACHMENT” (GH RESEARCH IRELAND LIMITED, priority 2022, published 2025)
